Measured values taken from patent publication US7622476B2, “Methods of using 1-allyl ergot alkaloid derivatives to treat migraines” (priority 2002, dated 2009).
Like-named read-outs stand apart in the source and are kept apart here. Marks after values point to notes of the source that are not given here.

Legend:
5-HT2B receptors = assay: Function test based on 5-HT2B receptor tissue (pig pulmonary artery, 5-HT-induced relaxation); type: cell-based; details: for 5-HT2B pA2 value: antagonism of 5-HT-induced relaxation, antagonist conc. (nM)
Description: The test was an in vitro function test to characterize 5-HT2B receptors in a pig's pulmonary artery. The pig's pulmonary artery was prepared as follows: Small branches were dissected from the pulmonary artery and cautiously freed of organ tissue and connective tissue. Up to six rings of the artery (length 2-3 mm and width 1.5-2 mm) were hung in horizontal orientation between two L-shaped platinum hooks (150 μm in diameter) and fixed in an organ bath containing 10 ml of modified Krebs-Henseleit buffer composed as follows: 118 mM NaCl, 4.7 mM KCl, 2.5 mM CaCl2, 1.2 mM MgSO4, 1.2 mM KH2PO4, 25 mM NaHCO3, and 11 mM D-glucose. A continuous flow of a gas mixture of 95% O2 and 5% CO2 passed through the solution which was kept at a constant temperature of 35° C. The preparations were connected to an isometric power converter (Hugo Sachs Elektronik, March, Germany), and voltage changes were continuously recorded. The constant voltage in stationary condition was adjusted to 20 mN at the beginning of each experiment. During an initial stabilization period of 60 minutes, the bath medium was replaced every 20 minutes and the voltage was repeatedly adjusted to 20 mN. The artery preparations were stimulated at 45-minute intervals once with KCl (30 mM) and three times with prostaglandin-F2α (PGF2α, 3 μM) until the response by contraction was visible. The undamaged condition of the endothelium was evaluated functionally by measuring the extent of endothelium-dependent relaxation following application of bradykinin (10 nM). After the third PGF2α-induced contraction had stabilized, the relaxation response was examined for 5-HT by determining a cumulative concentration-response curve in the absence and presence of the antagonist. […].
The relaxation response to the test compound was examined using the same method as with 5-HT to test for agonistic activity. The concentration of the agonist was increased in increments at the time when the response signal had reached a plateau. The plateau was typically reached within 2 to 4 minutes. The relaxation effects were expressed as a percentage of the PGF2α-induced contraction. The antagonists were added 30 minutes before the recording of the agonist concentration response curves started. The effects of the antagonists were examined in ring segments that were adjacent to the reference segments.

5-HT2A receptors [1] = target: T1, 5-HT2A receptors (Rattus norvegicus, UniProt P14842); details: reference compounds marked *; values from H. Pertz (1996) Planta Med. 62, pp. 387-392; cited from earlier work
T1 construct: characterizing 5-HT2A receptors in rat's caudal arteries; from tissue; host or cells: rat anterior caudal artery segments, endothelium stripped (male Wistar rats)
T1 sequence (P14842 whole entry): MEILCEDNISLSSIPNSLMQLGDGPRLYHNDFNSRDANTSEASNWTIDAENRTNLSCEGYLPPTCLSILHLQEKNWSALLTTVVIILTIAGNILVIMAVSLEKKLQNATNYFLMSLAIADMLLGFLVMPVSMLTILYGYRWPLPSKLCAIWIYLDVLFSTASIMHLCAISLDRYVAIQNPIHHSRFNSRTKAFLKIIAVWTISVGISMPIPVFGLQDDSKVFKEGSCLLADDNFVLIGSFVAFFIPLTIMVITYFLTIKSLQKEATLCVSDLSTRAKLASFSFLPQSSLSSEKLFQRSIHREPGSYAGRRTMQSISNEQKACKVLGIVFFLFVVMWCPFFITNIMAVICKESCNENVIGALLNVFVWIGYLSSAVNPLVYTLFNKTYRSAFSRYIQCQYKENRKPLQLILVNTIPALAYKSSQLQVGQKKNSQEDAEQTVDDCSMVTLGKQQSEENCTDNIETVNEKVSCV

5-HT2A receptors [2] = target: T1, 5-HT2A receptors; assay: Function test based on 5-HT2A receptor tissue (rat caudal artery, 5-HT concentration-response curves); type: cell-based; details: for 5-HT2A pA2 value: rat caudal artery without endothelium, antagonism of 5-HT, antagonist conc. (nM)
Text: The example below describes an in-vitro function test for characterizing 5-HT2A receptors in rat's caudal arteries.
Male Wistar rats (250-300 g) were killed by suffocation. The anterior caudal artery was dissected fast and cleared of attached connective tissue. A stainless steel wire (0.3 mm in diameter) was introduced into the artery to strip off the endothelium. […] A continuous flow of a gas mixture of 95% O2 and 5% CO2 passed through the solution which was kept at a constant temperature of 37° C. […] The constant voltage was adjusted to 5 mN at the beginning of each experiment. During an equilibrium period of 120 minutes, the preparations were stimulated once after 60 minutes with 5-HT (1 μM).
Three cumulative concentration-response curves (CRC) were determined for each artery segment in these experiments for the study of partial agonists. The first CRC was obtained for 5-HT, the second that followed 60 minutes later for the partial agonist. Finally, the third CRC was obtained 10-15 minutes after the second CRC without washing with 5-HT and using the highest agonist concentration (0.3-3 μM). Additional experiments determined two CRCs at an interval of 60 minutes as described above. The first CRC was determined for 5-HT. The second CRC was determined to test the partial agonist in the presence of ketanserin. The preparations were incubated for 30 minutes with a ketanserin solution (3 nM).
The axial shift to the right of the curves determined in the presence of ketanserin was compared to the shift determined for the respective control preparation in the absence of ketanserin. In these experiments using ketanserin, two separate CRCs to 5-HT were obtained from each artery segment at a 90-minute interval. For the antagonists, the preparations were incubated 60 minutes prior to determining the second curve. Prazosin (0.1 μM) and cocaine (6 μM) were present in the solution during these experiments to block the α1-adrenoceptors and neuronal absorption of 5-HT.

In the case of C=CCn1cc2c3c(cccc31)C1=C[C@@H](C(=O)N[C@]3(C)O[C@@]4(O)C5CCCN5C(=O)[C@H](Cc5ccccc5)N4C3=O)CN(C)[C@@H]1C2 (stereo partly shown) [1-Allyl ergotamine], the “5-HT2B -logKp, calculated according to Kenakin” value (5-HT2B receptors; printed in the pA2 column, marked **) was 9.11**.
For CN1C[C@H](CO)C=C2c3cccc4[nH]cc(c34)C[C@H]21 [Lysergol], the “5-HT2A pA2 value” (5-HT2A receptors [1]) is listed as 6.88.
With C=CCn1cc2c3c(cccc31)[C@H]1C[C@@H](C)CN(C)[C@@H]1C2 [1-Allyl festuclavine] the “5-HT2B pA2 value” (5-HT2B receptors) was 6.74 and the “5-HT2A pA2 value” (5-HT2A receptors [2]) was 7.89.
In the case of C=CCn1cc2c3c(cccc31)[C@H]1C[C@@H](C(=O)N[C@]3(C)O[C@@]4(O)C5CCCN5C(=O)[C@H](Cc5ccccc5)N4C3=O)CN(C)[C@@H]1C2 (stereo partly shown) [1-Allyl dihydroergotamine], the “5-HT2B pA2 value” (5-HT2B receptors) was 9.30.
For CCN(CC)C(=O)N[C@H]1C[C@@H]2c3cccc4[nH]cc(c34)C[C@H]2N(C)C1 [Terguride, reference compound], the “5-HT2B pA2 value” (5-HT2B receptors) was 8.49 and the “5-HT2A pA2 value” (5-HT2A receptors [2]) was 8.38.
For C=CCn1cc2c3c(cccc31)C1=C[C@@H](CO)CN(C)[C@@H]1C2 [1-Allyl-lysergol, 1-Allyl lysergol], the “5-HT2B pA2 value” (5-HT2B receptors) was 7.61 and the Kb (5-HT2A receptors [2]) was 3.55 nM.
For C=CCn1cc2c3c(cccc31)[C@@H]1C[C@H](NC(=O)N(CC)CC)CN(C)[C@H]1C2 [1-Allyl terguride, 1-allyl-(5R,8S,10R)-terguride], the “5-HT2B pA2 value” (5-HT2B receptors) was 7.67 and the Kb (5-HT2A receptors [2]) was 2 nM.
With CCN(CC)C(=O)N[C@H]1C=C2c3cccc4[nH]cc(c34)C[C@H]2N(C)C1 [Lisuride, reference compound] the “5-HT2B pA2 value” (5-HT2B receptors) was 10.32.
With C=CCn1cc2c3c(cccc31)C1=CC(NC(=O)N(CC)CC)CN(C)C1C2 (stereo not shown) [1-Allyl lisuride] the “5-HT2B pA2 value” (5-HT2B receptors) was 8.17.
